US20120329832A1, “Novel Insect-Repellent Coumarin Derivatives, Syntheses, and Methods of Use” (priority 2011, published 2012)
Where two headings read alike, the source gives them in different places.

What was measured:
mosquitoes = settings: absence of body odor attractants such as 1-octen-3-ol, lactic acid, or carbon dioxide; cited from earlier work
[1] = reported by US EPA; cited from earlier work
drosophila = experiment: Tests in vivo on drosophila: two-tube repellency test, Repulsive Index; set-up: key to RI against drosophila (FIG. 1) / RI (FIG. 2 and 3): RI = (N1−N2)/(N1+N2); N1 solvent tube, N2 compound tube; settings: for RI against drosophila (FIG. 1): concentration not given; for repellent or attractant activity against drosophila, in words: in vivo; for repellent activity compared with DEET, in words: 1% concentration in EtOH
Experimental: Description of Test system. To evaluate repellent efficacy, compounds were added to test chambers, each containing 40 drosophila. The test was performed in 3 phases: 1) fast (flies aspirated to test tubes); 2) implementation of the system (addition of filter paper, addition of solvent containing test compound); and 3) counting of the flies (after 22 hours exposure to test compound). The number of drosophila in each tube were counted: number of flies in the “filter paper+Solvent” tube was designated N1 and the number of flies in the “filter paper impregnated with test compound” was designated N2.
The Repulsive Index (R1) is given by the following equation: (N1−N2)/(N1+N2).

acetylcholinesterase = settings: insects and mammals; cited from earlier work
Culex = settings: cited from earlier work
Aedes mosquitoes = settings: cited from earlier work
[2] = share of drosophila in solvent tube (AcOEt), product concentration not given
[3] = 10% solution of product, share of drosophila in EtOH tube
[4] = 10% solution of product, share of drosophila in product tube versus EtOH tube
[5] = 20% solution of product, share of drosophila in EtOH tube
[6] = 20% solution of product, share of drosophila in product tube versus EtOH tube
[7] = share of drosophila in product tube versus EtOH tube after 22 hours, product concentration not given
[8] = share of drosophila in solvent tube (filter paper + EtOH) after 22 hours, product concentration not given
[9] = 5% solution of product, share of drosophila in EtOH tube
[10] = 5% solution of product, share of drosophila in product tube versus EtOH tube

## CCN(CC)C(=O)c1cccc(C)c1 [DEET, N,N-Diethyl-meta-toluamide]
mosquitoes
  repellent activity in behavioral test, in words: strong repellent activity
[1]
  deaths among the potential DEET-associated seizure cases: 4 deaths
drosophila
  RI against drosophila (FIG. 1): > 0.9
acetylcholinesterase
  activity on acetylcholinesterase, in words: inhibit the activity

## C=CCOc1ccc2ccc(=O)oc2c1 [EV04032]
drosophila; [2]
  In vivo tests: Tube AcOEt: 62.25%

## CCC(C)Oc1ccc2ccc(=O)oc2c1 (centres unmarked) [EV04058]
drosophila; [3]
  In vivo tests: Tube EtOH: 91.22%
drosophila; [4]
  In vivo tests: Tube product: 8.78%
drosophila; [5]
  In vivo tests: Tube EtOH: 88.02%
drosophila; [6]
  In vivo tests: Tube product: 11.98%

## CCC(C)Oc1ccc2ccc(=O)oc2c1 (centres unmarked) [EV04070]
drosophila; [3]
  In vivo tests: Tube EtOH: 92.79%
drosophila; [4]
  In vivo tests: Tube product: 7.21%
drosophila; [5]
  In vivo tests: Tube EtOH: 91.34%
drosophila; [6]
  In vivo tests: Tube product: 8.66%
drosophila
  repellent or attractant activity against drosophila, in words: significant repellent activity

## C=C(C)C1CC=C(COc2ccc3ccc(=O)oc3c2)CC1 (centres unmarked) [EV04090]
drosophila; share of drosophila in solvent tube (CH2Cl2), product concentration not given
  In vivo tests: Tube CH2Cl2: 70.20%
drosophila; solvent CH2Cl2 according to Table 2, Tested Concentration 0.666 mmol/mL
  Repulsive Index (RI): 0.404

## CCC(C)COc1ccc2ccc(=O)oc2c1 (centres unmarked) [EV04094]
drosophila; [3]
  In vivo tests: Tube EtOH: 89.63%
drosophila; [4]
  In vivo tests: Tube product: 10.37%
drosophila; [5]
  In vivo tests: Tube EtOH: 86.47%
drosophila; [6]
  In vivo tests: Tube product: 13.53%

## CCC(CC)Oc1ccc2ccc(=O)oc2c1 [EV04114]
drosophila; [3]
  In vivo tests: Tube EtOH: 88.00%
drosophila; [4]
  In vivo tests: Tube product: 12.00%
drosophila; [5]
  In vivo tests: Tube EtOH: 93.09%
drosophila; [6]
  In vivo tests: Tube product: 6.91%
drosophila
  repellent or attractant activity against drosophila, in words: significant repellent activity

## CC(=O)OC(C)C(=O)Oc1ccc2ccc(=O)oc2c1 (centres unmarked) [EV04122]
drosophila; [7]
  In vivo tests: Tube product: 68.18%
drosophila; [8]
  In vivo tests: Tube EtOH: 31.82%

## CCCCN(CCCC)C(=O)COc1ccc2ccc(=O)oc2c1 [EV05120]
drosophila; 10% solution in EtOH
  RI (FIG. 2 and 3): ~0.8
drosophila; [3]
  In vivo tests: Tube EtOH: 90.36%
drosophila; [4]
  In vivo tests: Tube product: 9.64%
drosophila; 20% solution in EtOH
  RI (FIG. 2 and 3): ~0.7
drosophila; [5]
  In vivo tests: Tube EtOH: 85.58%
drosophila; [6]
  In vivo tests: Tube product: 14.42%
drosophila
  repellent or attractant activity against drosophila, in words: acted as repellents

## CCCCN(CCCC)C(=O)c1ccc2ccc(=O)oc2c1 [EV05138]
drosophila; [3]
  In vivo tests: Tube EtOH: 82.54%
drosophila; [4]
  In vivo tests: Tube product: 17.46%
drosophila; [5]
  In vivo tests: Tube EtOH: 86.27%
drosophila; [6]
  In vivo tests: Tube product: 13.73%

## CC[C@H](C)OC(=O)c1ccc2ccc(=O)oc2c1 [EV05178]
drosophila; 10% solution in EtOH
  RI (FIG. 2 and 3): ~0.07
drosophila; [3]
  In vivo tests: Tube EtOH: 54.77%
drosophila; [4]
  In vivo tests: Tube product: 45.23%
drosophila; 20% solution in EtOH
  RI (FIG. 2 and 3): ~0.7
drosophila; [5]
  In vivo tests: Tube EtOH: 85.50%
drosophila; [6]
  In vivo tests: Tube product: 14.50%

## CCC(CC)Oc1ccc2oc(=O)ccc2c1 [EV06018]
drosophila; [2]
  In vivo tests: Tube AcOEt: 81.07%

## CCCCCOc1ccc2ccc(=O)oc2c1 [EV06026]
drosophila; [3]
  In vivo tests: Tube EtOH: 87.53%
drosophila; [4]
  In vivo tests: Tube product: 12.47%
drosophila; [5]
  In vivo tests: Tube EtOH: 94.12%
drosophila; [6]
  In vivo tests: Tube product: 5.88%

## CC(C)C(C)Oc1ccc2ccc(=O)oc2c1 (centres unmarked) [EV06028]
drosophila; [3]
  In vivo tests: Tube EtOH: 86.74%
drosophila; [4]
  In vivo tests: Tube product: 13.26%
drosophila; [5]
  In vivo tests: Tube EtOH: 94.21%
drosophila; [6]
  In vivo tests: Tube product: 5.79%

## CC(C)CCOc1ccc2ccc(=O)oc2c1 [EV06036]
drosophila; [3]
  In vivo tests: Tube EtOH: 86.10%
drosophila; [4]
  In vivo tests: Tube product: 13.90%
drosophila; [5]
  In vivo tests: Tube EtOH: 86.63%
drosophila; [6]
  In vivo tests: Tube product: 13.73%

## CCCC(C)Oc1ccc2ccc(=O)oc2c1 (centres unmarked) [EV06044]
drosophila; [3]
  In vivo tests: Tube EtOH: 83.91%
drosophila; [4]
  In vivo tests: Tube product: 16.08%
drosophila; [5]
  In vivo tests: Tube EtOH: 96.12%
drosophila; [6]
  In vivo tests: Tube product: 3.82%
drosophila
  repellent or attractant activity against drosophila, in words: significant repellent activity

## CCC(CC)Oc1cc(=O)oc2ccccc12 [EV06062]
drosophila
  repellent activity compared with DEET, in words: remains as good a repellent as DEET
drosophila; 1% solution of product, share of drosophila in EtOH tube
  In vivo tests: Tube EtOH: 87.08%
drosophila; 1% solution of product, share of drosophila in product tube versus EtOH tube
  In vivo tests: Tube product: 12.92%
drosophila; [9]
  In vivo tests: Tube EtOH: 96.08%
drosophila; [10]
  In vivo tests: Tube product: 3.20%
drosophila; [3]
  In vivo tests: Tube EtOH: 93.10%
drosophila; [4]
  In vivo tests: Tube product: 6.90%
drosophila; [5]
  In vivo tests: Tube EtOH: 98.26%
drosophila; [6]
  In vivo tests: Tube product: 1.74%
drosophila; EtOH, fourth Tested Concentration, 0.056 mmol/mL (1% solution)
  Repulsive Index (RI): 0.742

## CCC(C)Oc1ccc2oc(=O)ccc2c1 (centres unmarked) [EV06068]
drosophila; [3]
  In vivo tests: Tube EtOH: 90.91%
drosophila; [4]
  In vivo tests: Tube product: 9.09%
drosophila; [5]
  In vivo tests: Tube EtOH: 93.85%
drosophila; [6]
  In vivo tests: Tube product: 6.15%

## CCC(C)Oc1cc(=O)oc2ccccc12 (centres unmarked) [EV06088]
drosophila; [3]
  In vivo tests: Tube EtOH: 90.50%
drosophila; [4]
  In vivo tests: Tube product: 9.50%
drosophila; [5]
  In vivo tests: Tube EtOH: 91.04%
drosophila; [6]
  In vivo tests: Tube product: 8.96%

## CCCCCCCCN(CCCCCCCC)C(=O)COc1ccc2ccc(=O)oc2c1 [EV06092]
drosophila; [7]
  In vivo tests: Tube product: 32.34%
drosophila; [8]
  In vivo tests: Tube EtOH: 67.66%

## CCCCCCCCN(CCCCCCCC)C(=O)c1ccc2ccc(=O)oc2c1 [EV06096]
drosophila; [3]
  In vivo tests: Tube EtOH: 67.84%
drosophila; [4]
  In vivo tests: Tube product: 32.16%
drosophila; [5]
  In vivo tests: Tube EtOH: 95.33%
drosophila; [6]
  In vivo tests: Tube product: 4.67%
drosophila
  repellent or attractant activity against drosophila, in words: acted as repellents

## CCCC(C)Oc1cc(=O)oc2ccccc12 (centres unmarked) [EV06098]
drosophila; [3]
  In vivo tests: Tube EtOH: 79.29%
drosophila; [4]
  In vivo tests: Tube product: 20.71%
drosophila; [5]
  In vivo tests: Tube EtOH: 97.57%
drosophila; [6]
  In vivo tests: Tube product: 2.43%

## CCCCCCOc1ccc2ccc(=O)oc2c1 [EV06110]
drosophila; [3]
  In vivo tests: Tube EtOH: 91.09%
drosophila; [4]
  In vivo tests: Tube product: 8.91%
drosophila; [5]
  In vivo tests: Tube EtOH: 89.06%
drosophila; [6]
  In vivo tests: Tube product: 10.94%

## CC(C)C(C)Oc1cc(=O)oc2ccccc12 (centres unmarked) [EV06128]
drosophila; [5]
  In vivo tests: Tube EtOH: 66.83%
drosophila; [6]
  In vivo tests: Tube product: 33.17%

## CCCCCOc1cc(=O)oc2ccccc12 [EV06136]
drosophila; 20% solution of product, share of drosophila in AcOEt tube
  In vivo tests: Tube AcOEt: 88.56%
drosophila; 20% solution of product, share of drosophila in product tube versus AcOEt tube
  In vivo tests: Tube product: 11.44%

## CC(C)CCOc1cc(=O)oc2ccccc12 [EV06140]
drosophila; [3]
  In vivo tests: Tube EtOH: 90.10%
drosophila; [4]
  In vivo tests: Tube product: 9.90%
drosophila; [5]
  In vivo tests: Tube EtOH: 91.92%
drosophila; [6]
  In vivo tests: Tube product: 8.08%

## CCCCCCCCOc1ccc2ccc(=O)oc2c1 [EV06144]
drosophila; [9]
  In vivo tests: Tube EtOH: 91.35%
drosophila; [10]
  In vivo tests: Tube product: 8.65%
drosophila; [3]
  In vivo tests: Tube EtOH: 90.00%
drosophila; [4]
  In vivo tests: Tube product: 10.00%
drosophila; [5]
  In vivo tests: Tube EtOH: 91.73%
drosophila; [6]
  In vivo tests: Tube product: 8.37%

## CCCCCCC(C)Oc1ccc2ccc(=O)oc2c1 (centres unmarked) [EV06148]
drosophila
  repellent activity compared with DEET, in words: remained as effective a repellent as DEET
drosophila; [3]
  In vivo tests: Tube EtOH: 93.66%
drosophila; [4]
  In vivo tests: Tube product: 6.34%
drosophila; [5]
  In vivo tests: Tube EtOH: 96.00%
drosophila; [6]
  In vivo tests: Tube product: 4.00%

## CCCC(C)Oc1ccc2oc(=O)ccc2c1 (centres unmarked) [EV06154]
drosophila
  repellent activity compared with DEET, in words: performed effectively as a repellent
drosophila; [3]
  In vivo tests: Tube EtOH: 93.03%
drosophila; [4]
  In vivo tests: Tube product: 6.97%
drosophila; [5]
  In vivo tests: Tube EtOH: 96.57%
drosophila; [6]
  In vivo tests: Tube product: 3.43%

## CC(C)(C)COc1ccc2ccc(=O)oc2c1 [EV06162]
drosophila
  repellent or attractant activity against drosophila, in words: strong drosophila attractant

## CCC(C)NC(=O)c1ccc2ccc(=O)oc2c1 (centres unmarked) [EV06166]
drosophila
  RI against drosophila (FIG. 1): ~0.2

## CCC(C)NC(=O)COc1ccc2ccc(=O)oc2c1 (centres unmarked) [EV06178]
drosophila
  RI against drosophila (FIG. 1): ~−0.2
  repellent or attractant activity against drosophila, in words: appeared to provide attractant activity

## CCC(C)OC(=O)N1CCCCC1CCO (centres unmarked) [picaridine, hydroxyethyl isobutyl piperidine carboxylate]
Culex; 7% solution
  protection time against Culex: about 2.5 hours
Culex; 15% solution
  protection time against Culex: 4.8 h
Aedes mosquitoes; 7% solution
  protection against Aedes mosquitoes: little or no protection
Aedes mosquitoes; 15% solution
  protection time against Aedes: about one
drosophila
  RI against drosophila (FIG. 1): > 0.6
